Laboratory results taken from the NIST ThermoML archive (doi:10.1021/acs.jced.9b00185).
Numbers after ± are expanded uncertainties.

What was measured:
[1] = 298.15 K; 101.33 kPa; Liquid; Vibrating tube method
[2] = refractive index (Na D-line) (dimensionless); conditions: 298.15 K; 101.33 kPa; Liquid; Standard Abbe refractometry
[3] = excess molar enthalpy (molar enthalpy of mixing); xn = mol fraction of the nth substance listed; conditions: 298.15 K, 98.8 kPa, Liquid, Calvet calorimetry
[4] = xn = mol fraction of the nth substance listed; conditions: 298.15 K, 98.8 kPa, Liquid, Vibrating tube method

CCCCCCCCCC [decane]
Conditions | mass density [kg/m3] | refractive index
[1] | 726.61 ± 1 | –
[2] | – | 1.41 ± 0.0005

CCCCCCCCCC [decane] + CCCCCCCCCC(=O)OC
Conditions | excess molar enthalpy [kcal/mol]
[3], x2 = 0 | 0 ± 0.000239

CCCCCCCCCCCC [dodecane]
Conditions | mass density [kg/m3] | refractive index
[1] | 745.2 ± 1 | –
[2] | – | 1.4197 ± 0.0005

CCCCCCCCCCCC [dodecane] + CCCCCCCCCC(=O)OC
x2 = 0
Conditions | excess molar enthalpy [kcal/mol] | mass density [kg/m3]
[3] | 0 ± 0.000239 | –
[4] | – | 745.2 ± 1

CCCCCCCCCCCCCCCC [hexadecane]
Conditions | mass density [kg/m3] | refractive index
[1] | 769.8 ± 1 | –
[2] | – | 1.4323 ± 0.0005

CCCCCCCCCCCCCCCC [hexadecane] + CCCCCCCCCC(=O)OC
x2 = 0
Conditions | excess molar enthalpy [kcal/mol] | mass density [kg/m3]
[3] | 0 ± 0.000239 | –
[4] | – | 769.8 ± 1

CCCCCC [hexane]
Conditions | mass density [kg/m3] | refractive index
[1] | 654.81 ± 1 | –
[2] | – | 1.3725 ± 0.0005

CCCCCC [hexane] + CCCCCCCCCC(=O)OC
Conditions | excess molar enthalpy [kcal/mol]
[3], x2 = 0 | 0 ± 0.000239

CCCCCCCCCC(=O)OC [methyl decanoate]
Conditions | mass density [kg/m3] | refractive index
[1] | 868.02 ± 1 | –
[2] | – | 1.4235 ± 0.0005

CCCCCCCCCC(=O)OC [methyl decanoate] + CCCCCC
[3]
Conditions | excess molar enthalpy [kcal/mol]
x1 = 0.0479 | 0.0382 ± 0.00167
x1 = 0.0943 | 0.0636 ± 0.00263
x1 = 0.1448 | 0.081 ± 0.00335
x1 = 0.1927 | 0.105 ± 0.0043
x1 = 0.2477 | 0.114 ± 0.00478
x1 = 0.3077 | 0.123 ± 0.00502
x1 = 0.3542 | 0.126 ± 0.00526
x1 = 0.4059 | 0.125 ± 0.00502
x1 = 0.4574 | 0.12 ± 0.00502
x1 = 0.5055 | 0.113 ± 0.00454
x1 = 0.5557 | 0.107 ± 0.0043
x1 = 0.6037 | 0.0985 ± 0.00406
x1 = 0.6531 | 0.088 ± 0.00359
x1 = 0.7032 | 0.077 ± 0.00311
x1 = 0.752 | 0.0679 ± 0.00287
x1 = 0.8028 | 0.0543 ± 0.00215
x1 = 0.8496 | 0.0399 ± 0.00167
x1 = 0.9014 | 0.0277 ± 0.0012
x1 = 0.9328 | 0.0174 ± 0.000717
x1 = 1 | 0 ± 0.000239

CCCCCCCCCC(=O)OC [methyl decanoate] + CCCCCCCC
[3]
Conditions | excess molar enthalpy [kcal/mol]
x1 = 0.0551 | 0.0394 ± 0.00167
x1 = 0.1035 | 0.0691 ± 0.00287
x1 = 0.154 | 0.0949 ± 0.00382
x1 = 0.2078 | 0.113 ± 0.00454
x1 = 0.2514 | 0.127 ± 0.00526
x1 = 0.3088 | 0.137 ± 0.0055
x1 = 0.3584 | 0.143 ± 0.00574
x1 = 0.399 | 0.147 ± 0.00598
x1 = 0.4514 | 0.146 ± 0.00598
x1 = 0.5051 | 0.143 ± 0.00598
x1 = 0.5555 | 0.137 ± 0.0055
x1 = 0.599 | 0.131 ± 0.00526
x1 = 0.657 | 0.115 ± 0.00478
x1 = 0.7066 | 0.103 ± 0.0043
x1 = 0.7511 | 0.0913 ± 0.00382
x1 = 0.8069 | 0.0712 ± 0.00287
x1 = 0.8577 | 0.0533 ± 0.00215
x1 = 0.9098 | 0.0351 ± 0.00143
x1 = 0.9561 | 0.0167 ± 0.000717
x1 = 1 | 0 ± 0.000239

CCCCCCCCCC(=O)OC [methyl decanoate] + CCCCCCCCCC
[3]
Conditions | excess molar enthalpy [kcal/mol]
x1 = 0.0469 | 0.033 ± 0.00143
x1 = 0.0985 | 0.0662 ± 0.00263
x1 = 0.1523 | 0.0915 ± 0.00382
x1 = 0.2018 | 0.115 ± 0.00478
x1 = 0.2537 | 0.133 ± 0.0055
x1 = 0.3062 | 0.15 ± 0.00621
x1 = 0.3563 | 0.156 ± 0.00645
x1 = 0.4008 | 0.16 ± 0.00645
x1 = 0.4543 | 0.162 ± 0.00669
x1 = 0.5058 | 0.159 ± 0.00645
x1 = 0.5498 | 0.156 ± 0.00645
x1 = 0.6017 | 0.146 ± 0.00598
x1 = 0.6524 | 0.133 ± 0.0055
x1 = 0.7078 | 0.114 ± 0.00454
x1 = 0.7597 | 0.0994 ± 0.00406
x1 = 0.8086 | 0.0813 ± 0.00335
x1 = 0.8592 | 0.0607 ± 0.00263
x1 = 0.9058 | 0.0406 ± 0.00167
x1 = 0.9566 | 0.0151 ± 0.000717
x1 = 1 | 0 ± 0.000239

CCCCCCCCCC(=O)OC [methyl decanoate] + CCCCCCCCCCCC
Conditions | excess molar enthalpy, [3] [kcal/mol] | mass density, [4] [kg/m3]
x1 = 0.05 | – | 750.68 ± 1
x1 = 0.0512 | 0.0394 ± 0.00167 | –
x1 = 0.1 | – | 756.24 ± 1
x1 = 0.1129 | 0.076 ± 0.00311 | –
x1 = 0.1503 | – | 761.93 ± 1
x1 = 0.1513 | 0.101 ± 0.00406 | –
x1 = 0.1998 | – | 767.59 ± 1
x1 = 0.2021 | 0.119 ± 0.00478 | –
x1 = 0.25 | – | 773.38 ± 1
x1 = 0.2513 | 0.141 ± 0.00574 | –
x1 = 0.299 | 0.152 ± 0.00621 | –
x1 = 0.3001 | – | 779.28 ± 1
x1 = 0.3506 | – | 785.27 ± 1
x1 = 0.3572 | 0.163 ± 0.00669 | –
x1 = 0.3996 | – | 791.16 ± 1
x1 = 0.4051 | 0.169 ± 0.00693 | –
x1 = 0.4473 | 0.172 ± 0.00693 | –
x1 = 0.4497 | – | 797.22 ± 1
x1 = 0.5002 | – | 803.37 ± 1
x1 = 0.5033 | 0.172 ± 0.00693 | –
x1 = 0.55 | – | 809.54 ± 1
x1 = 0.5502 | 0.169 ± 0.00693 | –
x1 = 0.5952 | 0.163 ± 0.00669 | –
x1 = 0.5998 | – | 815.74 ± 1
x1 = 0.6499 | – | 822.04 ± 1
x1 = 0.652 | 0.15 ± 0.00621 | –
x1 = 0.6994 | – | 828.35 ± 1
x1 = 0.7089 | 0.132 ± 0.0055 | –
x1 = 0.7495 | – | 834.79 ± 1
x1 = 0.7524 | 0.117 ± 0.00478 | –
x1 = 0.7996 | – | 841.3 ± 1
x1 = 0.8098 | 0.0954 ± 0.00382 | –
x1 = 0.8493 | – | 847.78 ± 1
x1 = 0.8525 | 0.0731 ± 0.00311 | –
x1 = 0.8997 | – | 854.45 ± 1
x1 = 0.9019 | 0.0485 ± 0.00191 | –
x1 = 0.9496 | – | 861.18 ± 1
x1 = 0.9586 | 0.0196 ± 0.000956 | –
x1 = 1 | 0 ± 0.000239 | 868.02 ± 1
